Like-named read-outs stand apart in the source and are kept apart here.
Key:
[1] = molecular target: HER-2 (Homo sapiens (Human), UniProt P04626); assay: In vitro kinase inhibition assay, HER2 (ADP-Glo Kinase Assay); type: biochemical
Excerpt: (§1) RTK's play essential roles in regulation of cell proliferation, differentiation, survival and apoptosis. Aberrant expression of RTK results in cell growth dysfunction leading to tumor takeover, angiogenesis, and metastasis. They also produce their actions in a synergistic pattern in regulating tumor response to different anticancer RTK inhibitor drug therapies. […] The procedure of the used kits was done according to the manufacturer's instructions.

[2] = tested on: human breast cancer MCF-7 cell line; assay: MTT cell viability assay against MCF-7 cells; type: cell-based; conditions: vs standard drug staurosporine
Method: (§2) For this purpose, cells suspended in the medium (2×10^4 cells/mL) were plated in 96-well culture plates and incubated at 37° C. in a 5% CO2 incubator. After 12 h, the test sample ([…]) was added to the cells (2×10^4) in 96-well plates and cultured at 37° C. for 3 days. The cultured cells were mixed with 20 μL (microlitre) of MTT solution and incubated for 4 h at 37° C. The supernatant was carefully removed from each well and […] of DMSO were added to each well to dissolve the formazan crystals which were formed by the cellular reduction of MTT. After mixing with a mechanical plate mixer, the absorbance of each well was measured by a microplate reader using a test wavelength of 570 nm (nanometers). […] Each experiment was performed at least 3 times.

[3] = molecular target: VEGFR-2 (Homo sapiens (Human), UniProt P35968); assay: In vitro kinase inhibition assay, VEGFR2 (KDR) Kinase Assay Kit; type: biochemical; conditions: for VEGFR-2 inhibitory effect, fold less than Sorafenib: vs Sorafenib
Excerpt: as §1

[4] = tested on: normal WI38 cells; assay: MTT assay against normal WI38 cells (safety profile); type: cell-based; conditions: for IC50 against WI38 cells, fold higher than IC50 against MCF-7 cancer cells: WI38 vs MCF-7; for IC50 against WI38 cells relative to IC50 of staurosporine: vs reference drug staurosporine
Method: as §2
One of the features that differentiates various antiproliferative therapeutic agents from each other is the recurrence and severity of their side effects to the normal cells at their therapeutic doses. Accordingly, the safety profile of the most promising candidates (4b, 4j, 4k, and 4e) was evaluated against the normal WI38 cells derived from lung tissues using MTT assay.

[5] = molecular target: PDGFR-β (Homo sapiens (Human), UniProt P09619); assay: In vitro kinase inhibition assay, PDGFR-β; type: biochemical
Excerpt: as §1

[6] = molecular target: EGFR (Homo sapiens (Human), UniProt P00533); assay: In vitro kinase inhibition assay, EGFR (Abcam Human In cell ELISA Kit); type: biochemical
Excerpt: as §1

[7] = tested on: MCF-7 cancer cells; assay: Annexin-V/PI apoptosis assay, flow cytometry; type: cell-based, human; conditions: MCF-7, compound at IC50 concentration, 24 h; control 0.66%
Excerpt: Flow cytometry method has been used to detect the corresponding red (PI) and green (FITC) fluorescence.
The induction of apoptosis is one of the most crucial tools that confirm the effectiveness of cancer therapy. Cell cycle checkpoints are G1 (restriction or start), S ([…]), and G2/M. One of the main functions of the anticancer therapeutics is stoppage of the cell division at these checkpoints. […] The cells were stained with Annexin V/PI and examined using flow cytometry procedure. For cell cycle analysis, cell pellets were fixed with 70% ethanol on ice for 15 min. and collected again. The collected pellets were incubated with propidium iodide (PI) staining solution ([…] PI, 0.1 mg/mL RNaseA, 0.05% Triton X-100) at room temperature for 1 hand analyzed by Gallios flow cytometer (Beckman Coulter, Brea, CA, USA). Apoptosis detection was performed by FITC Annexin V/PI commercial kit (Becton Dickenson, Franklin Lakes, N.J., USA) following the manufacture protocol. The samples were analyzed by fluorescence-activated cell sorting (FACS) with a Gallios flow cytometer (Beckman Coulter, Brea, Calif., USA) within 1 h after staining Data were analyzed using Kaluzav 1.2 (Beckman Coulter).

[8] = unit mM, read-out: EGFR IC50 (converted)

Sequence of VEGFR-2 (P35968 20-1356): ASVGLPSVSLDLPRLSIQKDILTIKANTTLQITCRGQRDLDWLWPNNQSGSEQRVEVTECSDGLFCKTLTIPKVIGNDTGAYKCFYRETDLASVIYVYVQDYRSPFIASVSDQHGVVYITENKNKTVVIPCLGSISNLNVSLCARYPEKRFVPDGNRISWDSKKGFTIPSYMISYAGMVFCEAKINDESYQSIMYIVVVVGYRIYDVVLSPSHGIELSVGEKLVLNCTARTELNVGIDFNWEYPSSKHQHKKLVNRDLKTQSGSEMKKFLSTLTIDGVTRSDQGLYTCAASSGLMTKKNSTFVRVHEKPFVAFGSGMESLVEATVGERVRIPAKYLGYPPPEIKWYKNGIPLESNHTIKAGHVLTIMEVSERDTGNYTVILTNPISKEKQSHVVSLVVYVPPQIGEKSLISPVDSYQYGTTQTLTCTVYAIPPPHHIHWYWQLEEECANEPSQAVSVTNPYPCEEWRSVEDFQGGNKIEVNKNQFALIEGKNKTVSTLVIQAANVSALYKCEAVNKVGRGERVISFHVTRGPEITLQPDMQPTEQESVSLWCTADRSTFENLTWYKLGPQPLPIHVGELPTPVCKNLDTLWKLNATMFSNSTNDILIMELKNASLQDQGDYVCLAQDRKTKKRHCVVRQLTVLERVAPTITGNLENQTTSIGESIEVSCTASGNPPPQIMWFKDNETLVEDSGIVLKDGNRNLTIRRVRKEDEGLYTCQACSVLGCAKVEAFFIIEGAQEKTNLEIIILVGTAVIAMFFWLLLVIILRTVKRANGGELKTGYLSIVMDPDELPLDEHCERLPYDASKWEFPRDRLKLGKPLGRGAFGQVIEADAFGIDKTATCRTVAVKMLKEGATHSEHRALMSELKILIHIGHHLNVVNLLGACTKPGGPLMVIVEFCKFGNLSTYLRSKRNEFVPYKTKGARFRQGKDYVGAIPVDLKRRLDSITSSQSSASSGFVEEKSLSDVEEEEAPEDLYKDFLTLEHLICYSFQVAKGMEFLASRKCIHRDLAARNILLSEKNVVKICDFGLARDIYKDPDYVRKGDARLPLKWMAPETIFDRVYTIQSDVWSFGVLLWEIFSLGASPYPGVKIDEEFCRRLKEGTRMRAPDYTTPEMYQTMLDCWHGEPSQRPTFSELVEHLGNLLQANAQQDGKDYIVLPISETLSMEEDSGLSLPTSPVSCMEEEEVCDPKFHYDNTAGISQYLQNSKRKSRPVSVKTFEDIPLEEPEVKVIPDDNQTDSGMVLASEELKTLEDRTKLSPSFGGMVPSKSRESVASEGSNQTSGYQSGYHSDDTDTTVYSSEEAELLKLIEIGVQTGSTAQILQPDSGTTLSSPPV
Sequence of HER-2 (P04626 23-1255): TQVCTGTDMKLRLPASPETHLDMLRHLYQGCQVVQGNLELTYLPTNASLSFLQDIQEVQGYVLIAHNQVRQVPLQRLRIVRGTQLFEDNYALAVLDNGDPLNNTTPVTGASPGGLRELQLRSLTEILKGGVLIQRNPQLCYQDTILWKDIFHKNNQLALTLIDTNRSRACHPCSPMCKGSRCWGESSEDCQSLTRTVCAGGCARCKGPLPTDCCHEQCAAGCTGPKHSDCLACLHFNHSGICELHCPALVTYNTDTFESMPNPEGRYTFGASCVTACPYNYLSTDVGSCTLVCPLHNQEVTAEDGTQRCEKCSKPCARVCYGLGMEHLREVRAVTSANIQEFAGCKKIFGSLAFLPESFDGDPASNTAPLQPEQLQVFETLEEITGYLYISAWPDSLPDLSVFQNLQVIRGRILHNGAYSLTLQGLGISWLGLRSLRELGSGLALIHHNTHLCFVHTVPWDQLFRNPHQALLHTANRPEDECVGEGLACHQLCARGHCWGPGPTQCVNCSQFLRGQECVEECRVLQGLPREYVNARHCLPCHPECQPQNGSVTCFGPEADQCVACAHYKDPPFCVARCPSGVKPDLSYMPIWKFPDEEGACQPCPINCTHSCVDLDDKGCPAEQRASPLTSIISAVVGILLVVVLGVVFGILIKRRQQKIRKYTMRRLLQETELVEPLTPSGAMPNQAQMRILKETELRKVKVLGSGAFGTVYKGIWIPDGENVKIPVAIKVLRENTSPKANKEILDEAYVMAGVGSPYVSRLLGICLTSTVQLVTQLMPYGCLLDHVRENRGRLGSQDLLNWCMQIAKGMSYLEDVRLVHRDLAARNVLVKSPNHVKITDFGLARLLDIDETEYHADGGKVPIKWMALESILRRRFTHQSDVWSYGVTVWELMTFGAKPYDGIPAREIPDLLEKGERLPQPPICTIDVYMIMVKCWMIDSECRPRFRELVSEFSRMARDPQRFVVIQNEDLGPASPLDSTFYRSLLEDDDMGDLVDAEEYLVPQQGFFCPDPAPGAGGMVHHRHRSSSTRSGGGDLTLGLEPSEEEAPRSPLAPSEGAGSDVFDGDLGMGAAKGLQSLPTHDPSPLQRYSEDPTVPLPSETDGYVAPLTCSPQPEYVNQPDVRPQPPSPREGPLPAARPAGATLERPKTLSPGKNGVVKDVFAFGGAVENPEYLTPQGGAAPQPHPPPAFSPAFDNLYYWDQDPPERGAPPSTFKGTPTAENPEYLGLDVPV
Sequence of EGFR (P00533 25-1210): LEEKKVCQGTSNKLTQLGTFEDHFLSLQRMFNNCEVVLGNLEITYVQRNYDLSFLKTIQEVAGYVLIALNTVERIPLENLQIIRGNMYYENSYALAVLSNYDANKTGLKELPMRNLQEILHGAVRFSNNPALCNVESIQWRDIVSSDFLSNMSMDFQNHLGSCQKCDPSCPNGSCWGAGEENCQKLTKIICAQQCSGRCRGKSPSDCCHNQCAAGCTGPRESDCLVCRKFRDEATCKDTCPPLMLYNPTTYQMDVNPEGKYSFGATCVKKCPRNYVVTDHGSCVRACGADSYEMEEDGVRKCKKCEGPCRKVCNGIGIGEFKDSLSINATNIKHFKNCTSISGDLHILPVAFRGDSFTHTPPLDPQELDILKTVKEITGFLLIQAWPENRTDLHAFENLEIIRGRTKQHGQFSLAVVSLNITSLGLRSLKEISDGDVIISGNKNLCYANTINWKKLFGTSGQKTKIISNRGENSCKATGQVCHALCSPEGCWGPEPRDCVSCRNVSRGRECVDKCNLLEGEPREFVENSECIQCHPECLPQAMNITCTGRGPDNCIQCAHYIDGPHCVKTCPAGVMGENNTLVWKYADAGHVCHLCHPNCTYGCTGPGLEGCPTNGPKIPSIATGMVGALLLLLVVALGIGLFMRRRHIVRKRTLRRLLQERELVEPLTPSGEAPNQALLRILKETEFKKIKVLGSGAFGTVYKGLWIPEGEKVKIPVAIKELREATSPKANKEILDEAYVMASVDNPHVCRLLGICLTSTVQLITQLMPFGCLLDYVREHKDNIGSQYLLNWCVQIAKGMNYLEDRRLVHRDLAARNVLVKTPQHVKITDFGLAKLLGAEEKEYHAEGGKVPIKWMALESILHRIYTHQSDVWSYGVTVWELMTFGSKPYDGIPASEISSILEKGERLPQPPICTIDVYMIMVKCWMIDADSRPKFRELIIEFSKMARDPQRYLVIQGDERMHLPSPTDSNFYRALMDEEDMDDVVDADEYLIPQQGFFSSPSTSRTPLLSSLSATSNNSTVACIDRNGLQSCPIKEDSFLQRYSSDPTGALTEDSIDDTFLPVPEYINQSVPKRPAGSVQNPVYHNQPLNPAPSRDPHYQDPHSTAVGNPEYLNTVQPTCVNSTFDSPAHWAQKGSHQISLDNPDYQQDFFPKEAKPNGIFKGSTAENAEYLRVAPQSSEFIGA
Sequence of PDGFR-β (P09619 33-1106, species assumed): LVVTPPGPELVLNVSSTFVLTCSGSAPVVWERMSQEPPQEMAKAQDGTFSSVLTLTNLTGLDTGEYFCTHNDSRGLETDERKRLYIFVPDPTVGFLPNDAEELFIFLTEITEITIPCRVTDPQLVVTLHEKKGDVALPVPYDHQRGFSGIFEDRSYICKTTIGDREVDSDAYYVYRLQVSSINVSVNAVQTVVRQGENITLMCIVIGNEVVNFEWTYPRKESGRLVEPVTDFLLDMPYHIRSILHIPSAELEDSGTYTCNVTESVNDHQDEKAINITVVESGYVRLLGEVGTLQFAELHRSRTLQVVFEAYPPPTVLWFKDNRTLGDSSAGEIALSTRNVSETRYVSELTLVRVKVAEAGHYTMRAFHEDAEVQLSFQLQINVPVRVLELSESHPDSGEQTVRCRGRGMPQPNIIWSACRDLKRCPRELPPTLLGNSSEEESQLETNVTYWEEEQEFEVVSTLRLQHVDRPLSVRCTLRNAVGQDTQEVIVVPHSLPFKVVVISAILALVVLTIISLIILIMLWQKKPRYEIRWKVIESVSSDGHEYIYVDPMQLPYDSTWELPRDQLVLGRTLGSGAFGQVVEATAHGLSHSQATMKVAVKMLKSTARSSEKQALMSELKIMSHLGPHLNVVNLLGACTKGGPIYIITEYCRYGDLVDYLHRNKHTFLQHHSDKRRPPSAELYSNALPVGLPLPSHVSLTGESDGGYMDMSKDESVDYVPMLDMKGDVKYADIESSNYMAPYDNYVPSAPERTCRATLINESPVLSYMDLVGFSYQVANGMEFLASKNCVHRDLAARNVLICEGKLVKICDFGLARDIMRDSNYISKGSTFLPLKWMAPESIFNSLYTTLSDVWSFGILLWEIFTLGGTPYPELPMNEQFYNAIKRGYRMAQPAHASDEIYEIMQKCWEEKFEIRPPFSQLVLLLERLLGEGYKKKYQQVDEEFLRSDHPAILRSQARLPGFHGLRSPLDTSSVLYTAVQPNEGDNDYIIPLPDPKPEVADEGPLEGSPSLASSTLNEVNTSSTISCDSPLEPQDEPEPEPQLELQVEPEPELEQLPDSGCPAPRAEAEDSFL

## CCOC(=O)C1=C(C(F)(F)F)NC2=C(C(=O)CC(C)(C)C2)C1c1ccc(S(=O)(=O)c2ccccc2)cc1 (stereo not shown) [Compound 4b, ethyl 7,7-dimethyl-5-oxo-4-(4-(phenylsulfonyl)phenyl)-2-(trifluoromethyl)-1,4,5,6,7,8-hexahydroquinoline-3-carboxylate]
[1]; Table 4, read-out: HER-2 IC50 (converted)
  IC50: 0.562 nM
[2]
  fold more potent activity than staurosporine (MCF-7): about 2.5 fold
[3]; Table 4
  IC50: 1.97 nM
[3]
  VEGFR-2 inhibitory effect, fold less than Sorafenib: about 6.2 fold
[4]
  IC50 against WI38 cells, fold higher than IC50 against MCF-7 cancer cells: 24 fold
  IC50 against WI38 cells relative to IC50 of staurosporine: about 3 fold
[5]; Table 4
  IC50: 0.394 nM
[6]; [8]
  IC50: 110 nM

## CC1(C)CC(=O)C2=C(C1)NC(N)=C(C(=O)c1ccccc1)C2c1ccc(S(=O)(=O)c2ccccc2)cc1 (stereo not shown) [Compound 4d, 2-amino-3-benzoyl-7,7-dimethyl-4-(4-(phenylsulfonyl)phenyl)-4,6,7,8-tetrahydroquinolin-5(1H)-one]
[2]
  fold less potent than the standard drug staurosporine (MCF-7): 1.4 fold

## Cc1ccc(C(=O)C2=C(N)NC3=C(C(=O)CC(C)(C)C3)C2c2ccc(S(=O)(=O)c3ccccc3)cc2)cc1 (stereo not shown) [Compound 4e, 2-amino-7,7-dimethyl-3-(4-methylbenzoyl)-4-(4-(phenylsulfonyl)phenyl)-4,6,7,8-tetrahydroquinolin-5(1H)-one]
[2]
  fold more potent activity than staurosporine (MCF-7): 1-1.6 fold
[4]
  IC50 against WI38 cells, fold higher than IC50 against MCF-7 cancer cells: 4 fold
  IC50 against WI38 cells relative to IC50 of staurosporine: approximately equal

## Cc1ccc(S(=O)(=O)c2ccc(C3C(C(=O)c4ccccc4)=C(N)NC4=C3C(=O)CC(C)(C)C4)cc2)cc1 (stereo not shown) [Compound 4j, 2-amino-3-benzoyl-7,7-dimethyl-4-(4-tosylphenyl)-4,6,7,8-tetrahydroquinolin-5(1H)-one]
[1]; Table 4, heading: HER-2 IC50, read-out: HER-2 IC50 (converted)
  IC50: 170 ± 20 nM
[1]; differs from Table 4, read-out: HER-2 IC50 (converted)
  IC50: 171 nM
[1]; unit mM, read-out: HER-2 IC50 as restated in text
  IC50: 170 nM
[7]
  necrosis percent: 4.2%
[2]
  fold more potent activity than staurosporine (MCF-7): 1-1.6 fold
[3]; Table 4
  IC50: 0.57 nM
[3]; differs from Table 4
  IC50: 304 nM
[3]
  VEGFR-2 inhibitory effect, fold less than Sorafenib: ~1.8 fold
[4]
  IC50 against WI38 cells, fold higher than IC50 against MCF-7 cancer cells: 20 fold
  IC50 against WI38 cells relative to IC50 of staurosporine: about 3 fold
[5]
  PDGFR-β inhibition, fold more than reference sorafenib: 0.7 fold
[5]; Table 4
  IC50: 0.133 nM
[5]; differs from Table 4
  IC50: 81.6 nM
[5]; text b141 prints PDGFR-a
  PDGFR-a inhibition, fold more than reference sorafenib: 1.9 fold
[6]; EGFR IC50, Table 4, heading: EGFR IC50
  IC50: 70 ± 20 nM
[6]; differs from Table 4, read-out: EGFR IC50 (converted)
  IC50: 77.4 nM
[6]; [8]
  IC50: 70 nM

## Cc1ccc(C(=O)C2=C(N)NC3=C(C(=O)CC(C)(C)C3)C2c2ccc(S(=O)(=O)c3ccc(C)cc3)cc2)cc1 (stereo not shown) [Compound 4k, 2-amino-7,7-dimethyl-3-(4-methylbenzoyl)-4-(4-tosylphenyl)-4,6,7,8-tetrahydroquinolin-5(1H)-one]
[2]
  fold more potent activity than staurosporine (MCF-7): 1-1.6 fold
[4]
  IC50 against WI38 cells, fold higher than IC50 against MCF-7 cancer cells: 4 fold
  IC50 against WI38 cells relative to IC50 of staurosporine: approximately equal

## Cc1ccc(S(=O)(=O)c2ccc(C3C(C(=O)c4ccc(Br)cc4)=C(N)NC4=C3C(=O)CC(C)(C)C4)cc2)cc1 (stereo not shown) [Compound 4l, 2-amino-3-(4-bromobenzoyl)-7,7-dimethyl-4-(4-tosylphenyl)-4,6,7,8-tetrahydroquinolin-5(1H)-one]
[2]
  fold less potent than the standard drug staurosporine (MCF-7): 1.4 fold

## CN[C@@H]1C[C@H]2O[C@@](C)([C@@H]1OC)n1c3ccccc3c3c4c(c5c6ccccc6n2c5c31)C(=O)NC4 [Staurosporine, reference compound]
[4]; MTT, normal lung-derived cells
  IC50: 13 ± 2 nM

Source: US11505527B1, “Tetrahydroquinoline derivatives and a process of preparation thereof” (King Abdulaziz University, priority 2022, dated 2022)
